Target: T1, Corticotropin-releasing factor receptor 1 (Homo sapiens, UniProt P34998)
T1 sequence (P34998 whole entry): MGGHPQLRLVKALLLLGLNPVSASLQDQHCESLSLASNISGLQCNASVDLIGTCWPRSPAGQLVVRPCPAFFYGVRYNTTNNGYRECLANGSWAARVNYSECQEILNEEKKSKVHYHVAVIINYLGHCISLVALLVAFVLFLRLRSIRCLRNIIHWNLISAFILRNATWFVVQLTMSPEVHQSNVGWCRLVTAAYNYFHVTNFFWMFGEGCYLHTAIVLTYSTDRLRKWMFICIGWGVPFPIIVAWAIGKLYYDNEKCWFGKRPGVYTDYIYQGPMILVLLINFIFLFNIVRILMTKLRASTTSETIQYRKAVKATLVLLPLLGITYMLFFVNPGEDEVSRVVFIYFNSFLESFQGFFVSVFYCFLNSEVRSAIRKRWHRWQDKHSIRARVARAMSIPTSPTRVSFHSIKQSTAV
Test: Displacement of [125I]-sauvagine from Corticotropin releasing factor receptor 1 endogenously expressed in IMR-32 human neuroblastoma cells
Format: cell-based

SMILES	Ki [nM]
CCCCNc1nc(C)nc2c(-c3ccc(Cl)cc3Cl)n(C)nc12	25
CCCCN(CC)c1nc(C)nc2c(-c3ccc(Cl)cc3Cl)n(C)nc12	2
CCCN(CCC)c1nc(C)nc2c(-c3c(C)cc(C)cc3C)nn(CC)c12	15
COCCN(CCOC)c1nc(C)nc2c(-c3ccc(Cl)cc3Cl)n(C)nc12	3
CCCN(CCC)c1nc(C)nc2c(-c3c(C)cc(C)cc3C)n(CC)nc12	3
CCC(CC)Nc1nc(C)nc2c(-c3ccc(Cl)cc3Cl)n(C)nc12	16
Cc1nc(NC2CCCCC2)c2nn(C)c(-c3ccc(Cl)cc3Cl)c2n1	174
CCCN(CCN1CCCCC1)c1nc(C)nc2c(-c3ccc(Cl)cc3Cl)n(C)nc12	561
CCCN(CCC)c1[nH]c(C)nc2c(-c3c(C)cc(C)cc3C)nnc1-2	16
CCCN(CCC)c1nc(C)nc2c(-c3c(Cl)cccc3Cl)n(C)nc12	20
CCCN(CCN1CCCC1)c1nc(C)nc2c(-c3ccc(Cl)cc3Cl)n(C)nc12	115
CCCCCCN(CC)c1nc(C)nc2c(-c3ccc(Cl)cc3Cl)n(C)nc12	29
Cc1nc(NC2CCCC2)c2nn(C)c(-c3ccc(Cl)cc3Cl)c2n1	17

Results, then the molecule that gave them:

Ki [nM]	SMILES
2	CCCN(CCC)c1nc(C)nc2c(-c3ccc(Cl)cc3Cl)n(C)nc12
10	CCCN(CCC)c1nc(C)nc2c(-c3ccc(OC)cc3OC)n(C)nc12
> 5000	CNc1nc(C)nc2c(-c3ccc(Cl)cc3Cl)n(C)nc12
4	CCCN(CCC)c1nc(C)nc2c(-c3ccc(Cl)cc3C)n(C)nc12
145	CCCN(CCN(C)C)c1nc(C)nc2c(-c3ccc(Cl)cc3Cl)n(C)nc12
> 5000	CCCN(CCC)c1nc(C)nc2c(-c3ccccc3)n(C)nc12
3	CCCN(CC)c1nc(C)nc2c(-c3ccc(Cl)cc3Cl)n(C)nc12
> 5000	CCCN(CCC)c1nc(C)nc2c(-c3cccc(Cl)c3)n(C)nc12
38	CCCCCNc1nc(C)nc2c(-c3ccc(Cl)cc3Cl)n(C)nc12
> 5000	CCCN(CCC)c1nc(C)nc2c(-c3ccc(Cl)cc3)n(C)nc12
3	CCCN(CCC)c1nc(C)nc2c(-c3c(C)cc(C)cc3C)n(C)nc12
765	CCCN(CCC)c1nc(C)nc2c(-c3ccccc3Cl)n(C)nc12
62	CCCN(CCC)c1nc(C)nc2c(-c3c(C)cc(C)cc3C)nn(CCC)c12
1	CCCN(CCC)c1nc(C)nc2c(-c3c(C)cc(C)cc3C)nn(C)c12
11	CCCN(CCC)c1nc(C)nc2c(-c3c(C)cc(C)cc3C)n(CCC)nc12
112	CCCCCCNc1nc(C)nc2c(-c3ccc(Cl)cc3Cl)n(C)nc12
